# From US11964971B2, “Methods and compositions for modulating splicing” (Skyhawk Therapeutics, Inc., priority 2019, dated 2024)
# Tests used:
# SMN FL and SMN Δ7 = assay: Quantitative splicing assay (SMN) in SMA patient fibroblasts (GM03813); assay type: cell-based; details: Homo sapiens, Fibroblast; class symbol; read-out: SMN2 Splicing FL EC50 (nM)*
# Description: Spinal muscular atrophy (SMA) patient fibroblasts (GM03813, Coriell) are plated in 96-well plates at 50,000 cells/well. […] Treated cells are lysed and cDNA synthesized using the Fast Advanced Cells-to-Ct kit (Thermofisher A35378) according to the manufacturer's instructions. 2 μL of each cDNA are used in qPCR reactions. […] Reactions are run in a Quant Studio 6 qPCR instrument with default settings.
# SMN protein = SMN protein assay (MSD) in SMA patient fibroblasts (GM03813); assay type: cell-based, human
# Summary of the method: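 Absolute SMN protein measured by Mesoscale Discovery assay in lysates, calibrated per plate with SMN standards (1–19.5 μg/ml). Cells: GM03813 SMA fibroblasts, 7000/well, 48 h compound exposure at doses of 2.5 μM down to 0.6 nM.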
# [1] = tested on: MDR1-MDCK cell monolayers; details: dog, MDCK-MDR1, 120 min, 5 μM, pH 7.4
# MDR1 = assay: in vitro; details: dog; for Papp A→B at 120 min, 5 μM: MDCK-MDR1, pH 7.4, MDCK-MDR1: Papp A-B (10^−6, cm/s); for Papp B→A at 120 min, 5 μM: MDCK-MDR1, pH 7.4, MDCK-MDR1: Papp B-A (10^−6, cm/s)
# MDR1 (P-gp) = assay: MDCK-MDR1 permeability assay, blood-brain-barrier penetration potential; details: dog, MDCK-MDR1, pH 7.4, MDCK-MDR1 Efflux Ratio
smiles,measurement,setting,value
"CN(C)C(=O)c1cc2cc(O)c(-c3cnc(N(C)[C@@H]4C[C@H]5CCC(N5)[C@@H]4F)cn3)cc2o1 (single isomer, unassigned) [Compound 7E1]",EC50,SMN FL and SMN Δ7,501 to 10000 nM
same,EC50,SMN protein,501 to 10000 nM
same,MDCK-MDR1: % Recov A-B (%),[1],91%
same,MDCK-MDR1: % Recov B-A (%),[1],88%
same,"Papp A→B at 120 min, 5 μM",MDR1,1.78 ×10⁻⁶ cm/s
same,"Papp B→A at 120 min, 5 μM",MDR1,42.4 ×10⁻⁶ cm/s
same,"efflux ratio at 120 min, 5 μM",MDR1 (P-gp),24
"CN(c1cnc(-c2ccc(-c3cnn(C)c3)cc2O)cn1)[C@@H]1CC2CC[C@H](N2)[C@@H]1F (single isomer, unassigned) [Compound 16E1]",EC50,SMN FL and SMN Δ7,501 to 10000 nM
same,EC50,SMN protein,16 to 50 nM
same,MDCK-MDR1: % Recov A-B (%),[1],45%
same,MDCK-MDR1: % Recov B-A (%),[1],79%
same,"Papp A→B at 120 min, 5 μM",MDR1,5.62 ×10⁻⁶ cm/s
same,"Papp B→A at 120 min, 5 μM",MDR1,20.6 ×10⁻⁶ cm/s
same,"efflux ratio at 120 min, 5 μM",MDR1 (P-gp),4
"CNC(=O)/C=C/c1cc(O)c(-c2cnc(N(C)[C@H]3C[C@@H]4CCC(N4)[C@H]3F)cn2)cc1F (single isomer, unassigned) [Compound 60E2]",EC50,SMN FL and SMN Δ7,51 to 100 nM
same,EC50,SMN protein,0.01 to 15 nM
same,MDCK-MDR1: % Recov A-B (%),[1],89%
same,MDCK-MDR1: % Recov B-A (%),[1],89%
same,"Papp A→B at 120 min, 5 μM",MDR1,2.48 ×10⁻⁶ cm/s
same,"Papp B→A at 120 min, 5 μM",MDR1,60.1 ×10⁻⁶ cm/s
same,"efflux ratio at 120 min, 5 μM",MDR1 (P-gp),24
"CN(c1cnc(-c2ccc(-c3cnn(CF)c3)cc2O)cn1)[C@@H]1CC2CC[C@H](N2)[C@@H]1F (single isomer, unassigned) [Compound 42E1]",EC50,SMN FL and SMN Δ7,51 to 100 nM
same,EC50,SMN protein,16 to 50 nM
same,MDCK-MDR1: % Recov A-B (%),[1],48%
same,MDCK-MDR1: % Recov B-A (%),[1],59%
same,"Papp A→B at 120 min, 5 μM",MDR1,5.38 ×10⁻⁶ cm/s
same,"Papp B→A at 120 min, 5 μM",MDR1,30.4 ×10⁻⁶ cm/s
same,"efflux ratio at 120 min, 5 μM",MDR1 (P-gp),6
"CN(c1cnc(-c2ccc(-c3cn[nH]c3)cc2O)cn1)[C@@H]1C[C@@]2(C)CCC[C@](C)(N2)[C@@H]1F [Compound 23E1, 2-(5-(((1S,2R,3R,5R)-2-fluoro-1,5-dimethyl-9-azabicyclo[3.3.1]nonan-3-yl)(methyl)amino)pyrazin-2-yl)-5-(1H-pyrazol-4-yl)phenol]",EC50,SMN protein,501 to 10000 nM
same,MDCK-MDR1: % Recov A-B (%),[1],56%
same,MDCK-MDR1: % Recov B-A (%),[1],78%
same,"Papp A→B at 120 min, 5 μM",MDR1,9.07 ×10⁻⁶ cm/s
same,"Papp B→A at 120 min, 5 μM",MDR1,38.7 ×10⁻⁶ cm/s
same,"efflux ratio at 120 min, 5 μM",MDR1 (P-gp),4
"C[C@@]12CC[C@@](C)(N1)[C@@H](F)[C@@H](Oc1cnc(-c3ccc(-c4cn[nH]c4)cc3O)cn1)C2 [Compound 2E1, 2-(5-(((1R,2R,35,5S)-2-fluoro-1,5-dimethyl-8-azabicyclo[3.2.1]octan-3-yl)oxy)pyrazin-2-yl)-5-(1H-pyrazol-4-yl)phenol]",EC50,SMN protein,501 to 10000 nM
same,MDCK-MDR1: % Recov A-B (%),[1],71%
same,MDCK-MDR1: % Recov B-A (%),[1],86%
same,"Papp A→B at 120 min, 5 μM",MDR1,7.93 ×10⁻⁶ cm/s
same,"Papp B→A at 120 min, 5 μM",MDR1,40.7 ×10⁻⁶ cm/s
same,"efflux ratio at 120 min, 5 μM",MDR1 (P-gp),5
"COc1cc(-c2cc(O)c(-c3cnc(N(C4CC4)[C@@H]4CC5CC[C@H](N5)[C@@H]4F)cn3)cc2F)ccn1 (single isomer, unassigned) [Compound 36E1]",EC50,SMN protein,501 to 10000 nM
same,MDCK-MDR1: % Recov A-B (%),[1],8%
same,MDCK-MDR1: % Recov B-A (%),[1],37%
same,"Papp A→B at 120 min, 5 μM",MDR1,0.52 ×10⁻⁶ cm/s
same,"Papp B→A at 120 min, 5 μM",MDR1,1.41 ×10⁻⁶ cm/s
same,"efflux ratio at 120 min, 5 μM",MDR1 (P-gp),3
"CN(c1cnc(-c2cc(F)c(-c3cnn(CF)c3)cc2O)cn1)[C@@H]1CC2CC[C@H](N2)[C@@H]1F (single isomer, unassigned) [Compound 29E1]",EC50,SMN protein,16 to 50 nM
same,MDCK-MDR1: % Recov A-B (%),[1],38%
same,MDCK-MDR1: % Recov B-A (%),[1],56%
same,"Papp A→B at 120 min, 5 μM",MDR1,6.29 ×10⁻⁶ cm/s
same,"Papp B→A at 120 min, 5 μM",MDR1,17.2 ×10⁻⁶ cm/s
same,"efflux ratio at 120 min, 5 μM",MDR1 (P-gp),3
"CN(c1cnc(-c2ccc(-c3cnn(C)c3)cc2O)cn1)[C@@H]1CC2CC(F)(F)[C@@H](C1)N2 (single isomer, unassigned) [Compound 10E1]",EC50,SMN protein,501 to 10000 nM
same,MDCK-MDR1: % Recov A-B (%),[1],59%
same,MDCK-MDR1: % Recov B-A (%),[1],86%
same,"Papp A→B at 120 min, 5 μM",MDR1,22.9 ×10⁻⁶ cm/s
same,"Papp B→A at 120 min, 5 μM",MDR1,26.1 ×10⁻⁶ cm/s
same,"efflux ratio at 120 min, 5 μM",MDR1 (P-gp),1
"COc1cc(-c2ccc(-c3cnc(N(C)[C@@H]4CC5CC[C@H](N5)[C@@H]4F)cn3)c(O)c2)cc(F)n1 (single isomer, unassigned) [Compound 44E1]",EC50,SMN protein,501 to 10000 nM
same,MDCK-MDR1: % Recov A-B (%),[1],14%
same,MDCK-MDR1: % Recov B-A (%),[1],41%
same,"Papp A→B at 120 min, 5 μM",MDR1,2.33 ×10⁻⁶ cm/s
same,"Papp B→A at 120 min, 5 μM",MDR1,5.55 ×10⁻⁶ cm/s
same,"efflux ratio at 120 min, 5 μM",MDR1 (P-gp),2
"CN(c1cnc(-c2ccc(-c3ccn(C)c(=O)c3)cc2O)cn1)[C@H]1C[C@@H]2CCC(N2)[C@H]1F (single isomer, unassigned) [Compound 45E2]",EC50,SMN protein,51 to 100 nM
same,MDCK-MDR1: % Recov A-B (%),[1],87%
same,MDCK-MDR1: % Recov B-A (%),[1],87%
same,"Papp A→B at 120 min, 5 μM",MDR1,1.9 ×10⁻⁶ cm/s
same,"Papp B→A at 120 min, 5 μM",MDR1,65.6 ×10⁻⁶ cm/s
same,"efflux ratio at 120 min, 5 μM",MDR1 (P-gp),35
"CN(c1cnc(-c2ccc(-c3nnco3)cc2O)cn1)[C@@H]1CC2CC[C@H](N2)[C@@H]1F (single isomer, unassigned) [Compound 80E1]",EC50,SMN protein,101 to 500 nM
same,MDCK-MDR1: % Recov A-B (%),[1],63%
same,MDCK-MDR1: % Recov B-A (%),[1],76%
same,"Papp A→B at 120 min, 5 μM",MDR1,5.24 ×10⁻⁶ cm/s
same,"Papp B→A at 120 min, 5 μM",MDR1,21.5 ×10⁻⁶ cm/s
same,"efflux ratio at 120 min, 5 μM",MDR1 (P-gp),4
"Cn1cnc(-c2cc(O)c(-c3cnc(N(C4CC4)[C@@H]4CC5CC[C@H](N5)[C@@H]4F)cn3)cc2F)cc1=O (single isomer, unassigned) [Compound 50E1]",EC50,SMN protein,501 to 10000 nM
same,MDCK-MDR1: % Recov A-B (%),[1],82%
same,MDCK-MDR1: % Recov B-A (%),[1],92%
same,"Papp A→B at 120 min, 5 μM",MDR1,1.59 ×10⁻⁶ cm/s
same,"Papp B→A at 120 min, 5 μM",MDR1,46.4 ×10⁻⁶ cm/s
same,"efflux ratio at 120 min, 5 μM",MDR1 (P-gp),29
"Cn1cnc(-c2ccc(-c3cnc(N(C4CC4)[C@@H]4CC5CC[C@H](N5)[C@@H]4F)cn3)c(O)c2)cc1=O (single isomer, unassigned) [Compound 55E1]",EC50,SMN protein,501 to 10000 nM
same,MDCK-MDR1: % Recov A-B (%),[1],81%
same,MDCK-MDR1: % Recov B-A (%),[1],85%
same,"Papp A→B at 120 min, 5 μM",MDR1,2.46 ×10⁻⁶ cm/s
same,"Papp B→A at 120 min, 5 μM",MDR1,64.4 ×10⁻⁶ cm/s
same,"efflux ratio at 120 min, 5 μM",MDR1 (P-gp),26
"CN(c1cnc(-c2cc(F)c(-c3cnn(C)c3)cc2O)cn1)[C@H]1C[C@@H]2CCC(N2)[C@H]1F (single isomer, unassigned) [Compound 17E1]",EC50,SMN protein,0.01 to 15 nM
same,MDCK-MDR1: % Recov A-B (%),[1],31%
same,MDCK-MDR1: % Recov B-A (%),[1],74%
same,"Papp A→B at 120 min, 5 μM",MDR1,4.22 ×10⁻⁶ cm/s
same,"Papp B→A at 120 min, 5 μM",MDR1,18.6 ×10⁻⁶ cm/s
same,"efflux ratio at 120 min, 5 μM",MDR1 (P-gp),4
"COc1cc(-c2ccc(-c3cnc(N(C)[C@H]4C[C@@H]5CCC(N5)[C@H]4F)cn3)c(O)c2)ccn1 (single isomer, unassigned) [Compound 43E2]",EC50,SMN protein,16 to 50 nM
same,MDCK-MDR1: % Recov A-B (%),[1],12%
same,MDCK-MDR1: % Recov B-A (%),[1],49%
same,"Papp A→B at 120 min, 5 μM",MDR1,0.98 ×10⁻⁶ cm/s
same,"Papp B→A at 120 min, 5 μM",MDR1,1.35 ×10⁻⁶ cm/s
same,"efflux ratio at 120 min, 5 μM",MDR1 (P-gp),1
"CN(c1cnc(-c2cc(F)c(-c3ccn(CF)c(=O)c3)cc2O)cn1)[C@@H]1C[C@H]2CC[C@H](N2)[C@@H]1F [Compound 32E1, 4-(2-fluoro-4-(5-(((1S,2S,3R,5R)-2-fluoro-8-azabicyclo[3.2.1]octan-3-yl)(methyl)amino)pyrazin-2-yl)-5-hydroxyphenyl)-1-(fluoromethyl)pyridin-2(1H)-one]",EC50,SMN protein,501 to 10000 nM
same,MDCK-MDR1: % Recov A-B (%),[1],101%
same,MDCK-MDR1: % Recov B-A (%),[1],92%
same,"Papp A→B at 120 min, 5 μM",MDR1,3.13 ×10⁻⁶ cm/s
same,"Papp B→A at 120 min, 5 μM",MDR1,58.7 ×10⁻⁶ cm/s
same,"efflux ratio at 120 min, 5 μM",MDR1 (P-gp),19
"CN(c1cnc(-c2ccc(C3=CCOC3)cc2O)cn1)[C@H]1C[C@@H]2CCC(N2)[C@H]1F (single isomer, unassigned) [Compound 84E2]",EC50,SMN protein,16 to 50 nM
same,MDCK-MDR1: % Recov A-B (%),[1],28%
same,MDCK-MDR1: % Recov B-A (%),[1],66%
same,"Papp A→B at 120 min, 5 μM",MDR1,4.64 ×10⁻⁶ cm/s
same,"Papp B→A at 120 min, 5 μM",MDR1,14.9 ×10⁻⁶ cm/s
same,"efflux ratio at 120 min, 5 μM",MDR1 (P-gp),3
